These results are taken from EPA's ToxValDB 9.5 (doi:10.2903/j.efsa.2010.1828).

The structures appear in SMILES notation.

The subject of one series is Apis mellifera. Conditions: acute; duration: 48 hours; oral; unspecified; mortality.
Another series concerns Colinus virginianus. Conditions: acute; oral; mortality.
In a further series the test system is Daphnia magna. To be noted: chronic/long-term; duration: 21 days; growth.
Another series relates to Tagia sp. To be noted: acute; duration: 14 days; mortality.
In the next series the test system is Macromiidae. To be noted: acute; duration: 72 hours; growth.
Another series deals with Folsomia candida. Conditions: chronic/long-term; duration: 28 days.
For a further series, the system named is Bibionidae. Conditions: chronic/long-term; duration: 26 days; other.
The test system of a further series is Coturnix japonica. Conditions: reproduction developmental; duration: 8 weeks; reproduction.
The next series relates to Bird. Conditions: short-term; oral; feed; mortality.
A further series has as its system Aphidius rhopalosiphi. In words: LR50; higher = less toxic. To be noted: not reported; mortality.

On to `O=C(Nc1ccccc1)N(Cc1ccc(Cl)cc1)C1CCCC1` [Pencycuron], for which the LD50 was more than 98.5 µg/piece with Apis mellifera; more than 2000 mg/kg in the series with Colinus virginianus; more than 5000 mg/kg in the series on Rattus norvegicus (acute, oral, mortality). For the same compound, the NOEC with Daphnia magna is 0.0496 mg/L; in the series on Macromiidae it was more than 0.3 mg/L; with Oncorhynchus mykiss (chronic/long-term, duration: 94 days, growth), 0.0832 mg/L; with Folsomia candida it was 60 mg/kg; in the series on Bibionidae, not below 0.3 mg/L. The LC50 in the series on Tagia sp. was more than 10000 mg/kg; in the series on Oncorhynchus mykiss (acute, duration: 96 hours, mortality), more than 0.3 µg/mL; in the series on Bird, more than 1750 mg/kg-day. Further, the NOAEL was 18 mg/kg-day in the series with Rattus norvegicus (chronic, duration: 2 years) and 32 mg/kg-day in the series with Rattus norvegicus (reproduction developmental, body weight). Besides, the NOEL in the series on Coturnix japonica is not below 122 mg/kg-day. Moreover, the LR50 in the series on Aphidius rhopalosiphi amounted to 685 g/ha.
